One may read the IC50 as the concentration that gives 50% inhibition. A high value points to weaker potency. As a reminder, the Ki is the equilibrium dissociation constant of an inhibitor or competing ligand from its target.

The structures appear in SMILES notation.

The nature of data set [1]: Cytotoxicity against human NCI-H187 cells. In kind it is cell-based.
The nature of data set [2]: Cytotoxicity against human BC cells. In kind it is cell-based.
Data set [3] concerns KB. The experiment in a line: Cytotoxicity against human KB cells. In kind it is cell-based.
In data set [4] the target is Tyrosinase (Agaricus bisporus). Nature of the data set: Inhibition of tyrosinase.
The nature of data set [5]: Cytotoxicity against human NCI-H187 cells at 20 ug/ml. In kind it is cell-based.
Data set [6] deals with KB. The experiment in a line: Cytotoxicity against human KB cells at 20 ug/ml. In kind it is cell-based.
For data set [7], the target named is T1, Tyrosinase (Agaricus bisporus, UniProt O42713).
T1 sequence (O42713 whole entry): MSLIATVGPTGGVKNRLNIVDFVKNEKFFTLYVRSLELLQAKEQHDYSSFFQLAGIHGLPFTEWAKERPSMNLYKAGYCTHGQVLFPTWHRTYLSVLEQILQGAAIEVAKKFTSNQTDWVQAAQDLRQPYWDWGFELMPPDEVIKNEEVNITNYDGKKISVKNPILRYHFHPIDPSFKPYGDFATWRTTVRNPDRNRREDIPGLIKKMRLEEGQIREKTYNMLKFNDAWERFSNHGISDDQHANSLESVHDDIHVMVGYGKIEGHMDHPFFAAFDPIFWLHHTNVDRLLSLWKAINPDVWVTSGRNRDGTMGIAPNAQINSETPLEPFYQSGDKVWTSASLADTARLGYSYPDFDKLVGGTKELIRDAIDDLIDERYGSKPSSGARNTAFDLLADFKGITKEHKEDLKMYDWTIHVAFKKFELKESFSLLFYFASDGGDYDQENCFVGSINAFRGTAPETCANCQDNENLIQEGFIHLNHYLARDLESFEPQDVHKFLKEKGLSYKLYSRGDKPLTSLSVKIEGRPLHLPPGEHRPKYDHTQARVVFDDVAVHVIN
The experiment in a line: Inhibition of mushroom tyrosinase at 2.4 uM.

A short description of data set [8]: Cytotoxicity against human BC cells at 20 ug/ml. In kind it is cell-based.
Data set [9] addresses T1, Tyrosinase. Nature of the data set: Inhibition of mushroom tyrosinase at 1.2 uM.
Data set [10] concerns the target T1, Tyrosinase. The experiment in a line: Inhibition of mushroom tyrosinase at 9.2 uM.
Data set [11] concerns the target T1, Tyrosinase. The experiment in a line: Inhibition of mushroom tyrosinase at 18.4 uM.

With `COc1cc(O)cc(/C=C/c2ccc(OC)cc2O)c1`, the IC50 in data set [1] was 33.5 µM; in [2], 13.9 µM; in data set [3], 16.5 µM; in data set [4], more than 100 µM.
As for `COc1cc(O)ccc1/C=C/c1cc(O)cc(O)c1`, the Activity in data set [5] and in data set [6] was less than 50% each time. Further, the IC50 was 66.6 µM in data set [2] and more than 100 µM in data set [4].
In the case of `COc1cc(O)cc(/C=C/c2ccc(O)cc2OC)c1`, the IC50 in data set [1] was 10.9 µM; in data set [2] it was 10.8 µM; in [3] it was 5.5 µM; in [4], more than 100 µM.
Take `Oc1cc(O)cc(CCc2ccc(O)cc2O)c1`: the Activity in data set [5], in [6] and in data set [8] was less than 50% each time. Besides, the Ki in data set [7] was 5.6 µM; in data set [9], 4.8 µM. Besides, in [4], half-maximal inhibition (IC50) required 1.6 µM.
Regarding `COc1cc(/C=C\c2ccc(OC)cc2OC)cc(OC)c1`, the values for the IC50 in data set [1], in [2] and in data set [3] were 0.3 µM, 1 µM and 0.3 µM, respectively.
In the case of `COc1cc(CCc2ccc(OC)cc2OC)cc(OC)c1`, the Activity in data set [5], in data set [6] and in data set [8] was less than 50% throughout. In data set [4], this compound gave an IC50 of more than 100 µM.
As to `COc1cc(/C=C/c2ccc(OC)cc2OC)cc(OC)c1`, the IC50 came out at 8 µM in data set [1], 5.6 µM in [2] and 8.6 µM in data set [3].
In the case of `COc1cccc2c1C(=O)c1c(O)c3c(c(O)c1C2=O)C[C@@](O)(C(=O)CO)C[C@@H]3O[C@H]1C[C@H](N)[C@H](O)[C@H](C)O1` [DOXORUBICIN], the IC50 came out at 0.1 µM in data set [1] and 0.5 µM in [2].
As for `Cc1c2ccncc2c(C)c2c1[nH]c1ccccc12` [ELLIPTECINE], the results for the IC50 in [1], in [2] and in data set [3] were 1.9 µM, 2.7 µM and 2.4 µM, respectively.
On to `Oc1cc(O)cc(/C=C/c2ccc(O)cc2O)c1` [OXYRESVERATROL], for which the Activity in data set [5], in data set [6] and in data set [8] was less than 50% throughout. Besides, the Ki in data set [10] was 22 µM; in data set [11], 28 µM.

For the origin of these results see ChEMBL document CHEMBL1139674 (Bioorg Med Chem Lett, 2006).
